In patent US9867879B2 (Vanderbilt University, priority 2015, dated 2018):
pEC50, pIC50: −log10 of the molar value. Converted amounts (≈) assume the structure as drawn. “Also recorded” adds a separate entry of the source. Where two headings read alike, the source gives them in different places.

Experiments:
[1] = test system: wild type S. aureus strain Newman; assay: Growth inhibition IC50, Newman aerobic; format: cell-based; conditions: 95% confidence interval, >60 μM considered nontoxic
Procedure: (§1) Cultures of wild type S. aureus strain Newman and ΔmenB^14 were grown in aeration tubes aerobically at 37° C. with shaking for 15-18 h. Anaerobic cultures were prepared by growing bacteria at 37° C. without shaking in an anaerobic chamber for 15-18 h. Bacteria from each condition were subcultured 1:100 into TSB containing various concentrations of compound in a 96 well plate. Aerobic wild type and ΔmenB plates are incubated aerobically at 37° C. with shaking while anaerobic plates were grown in an anaerobic chamber (Coy) at 37° C. without shaking. The absorbance at 600 nm (OD600) was determined after 9 h of growth and the fraction of growth at each compound concentration is determined by dividing the OD600 by the vehicle control (DMSO) value. IC50s were calculated using Graphpad Prism 6 and errors are reported as 95% confidence intervals.
(§2) Wild type S. aureus strain Newman was grown in an anaerobic chamber in appropriate media to ensure exclusion of terminal electron acceptors sufficient to force the bacteria to ferment. […] The arbitrary cut off point for toxicity of 60 μM was chosen as many of the compounds were not entirely soluble above this concentration.

[2] = test system: S. aureus; assay: Heme adaptation assay; format: cell-based; conditions: subculture into 20 μM heme
Procedure: Overnight cultures of S. aureus were subcultured into 500 μL TSB containing compound in 1.5 mL tubes and incubated at 37° C. with shaking for 15 h. Bacteria from the compound treated cultures were then subcultured 1:100 into 100 μL TSB containing heme and incubated at 37° C. with shaking for 8 h. Growth was monitored by reading the OD600 on a Biotek microplate reader at the defined time intervals.
Finally, the top activators were assayed for their ability to preadapt S. aureus to heme as an indication that they can activate HssRS outside the context of a reporter assay. Pretreatment of cultures with a compound that induces HrtAB expression through activation of HssRS at subtoxic concentrations allows the bacteria to survive and grow when subcultured into a toxic concentration of heme. Pretreatment with 4 μM heme, 40 μM 1, and vehicle with 40 μM of each of the top activators were compared (excluding 2d because of toxicity). All derivatives were able to preadapt S. aureus to a toxic concentration of heme (20 μM) as well as 4 μM heme and 40 μM 1 (FIG. 5). The discrepancy between XylE assay and heme adaptation activity is likely due to the length of treatment with compound (6 h vs. 15 h).

[3] = test system: wild type S. aureus strain Newman; assay: Growth inhibition IC50, Newman anaerobic (fermenting); format: cell-based; conditions: for pIC50: Staphylococcus aureus, NEWMAN, 9 h of growth, anaerobic chamber, 95% confidence interval, >60 μM considered nontoxic; for toxicity to fermenting / anaerobic S. aureus (in words): anaerobic Newman and ΔmenB, from IC50 data
Procedure: as §1, §2

[4] = test system: ΔmenB; assay: Growth inhibition IC50, ΔmenB; format: cell-based, S. aureus; conditions: Staphylococcus aureus, 9 h, read-out: IC50 ΔmenB
Procedure: as §1, with “intervals. […]” for “intervals.”

[5] = test system: HssRS; assay: microbe, parasite or virus in culture; format: cell-based, S. aureus; conditions: for pEC50 / EC50: Staphylococcus aureus, 6 h; for EC50: read-out: pEC50 (converted); for Efficacy: percent activation of HssRS compared to 1 at 50 μM, error one standard deviation; for HssRS activation in single point screen: 50 μM, fraction of activation relative to 1, cut-off 0.05, in words
Procedure: Previously reported strains were used.^11 Cultures grown overnight in 5 ml TSB with 10 μg mL^−1 chloramphenicol for 15-18 h were subcultured 1:100 into 0.5 mL TSB with 10 μg mL^−1 chloramphenicol containing compound and incubated at 37° C., 180 rpm for 6 h. Cells were washed and lysed as previously described. 200 μL of a 200 μM catechol solution in 100 mM potassium phosphate (pH 8.0) was added to 20 μL of lysate and the oxidation of catechol was followed by monitoring absorbance at 375 nm for 10 min. Samples were normalized to protein concentration as determined by BCA assay (Pierce).
The above XylE procedure was followed using different concentrations of compound. The data were then entered into Graphpad Prism 6 and fit to a curve to determine EC50 values.
HssRS activation. The library was screened for activation of the heme stress response as an indicator for activation of heme biosynthesis in S. aureus. We began by screening at the single point concentration of 50 μM using a previously described reporter assay (FIG. 4).^11 In this assay, Newman harboring a plasmid with the hrt promoter fused to xylE, a gene encoding a catechol oxidase, is treated with compound for six hours, the bacteria lysed, and the oxidation of catechol by XylE quantified by spectrophotometry. An increase in absorbance due to the oxidation of catechol indicates elevated levels of xylE transcription and hrt promoter activity. Results are expressed as the fraction of activation of HssRS by the compound compared to 1. […] With reference to FIG. 8, activation of HssRS by 3a and 3b at 50 μM. Activity is presented as the fraction of activation by the indicated derivative relative to 1 at 50 μM.

[6] = test system: S. aureus; conditions: earlier method, low cell density; cited from earlier work
[7] = test system: S. aureus infection; conditions: previously reported; cited from earlier work
[8] = test system: heme biosynthetic pathway; assay: Accumulation of heme precursor molecules; format: cell-based, S. aureus; conditions: data not shown
Text: Because ALA is the first committed precursor molecule in the heme biosynthetic pathway, if ALA is contacted with bacteria, the bacteria will generated enhanced amounts of all of the heme precursor molecules downstream of ALA.

[9] = Solubility limit; format: physicochemical
[10] = Staphylococcus aureus, NEWMAN, 9 h, read-out: IC50 Newman aerobic, 9 h of growth, aerobic

Row | Structure (SMILES) | pIC50 [1, 10] | preadaptation to heme toxicity ([2]; pretreatment 40 μM compound) | pIC50 [3] | pIC50 [4] | toxicity to fermenting / anaerobic S. aureus (in words) [3] | pEC50 [5] | EC50 [5] | Efficacy [5] | further results
1 | O=C(Nc1ccccc1-c1cc(-c2ccco2)[nH]n1)c1cc(Cl)cc(Cl)c1 [Compound 1i, 3,5-dichloro-N-(2-(5-(furan-2-yl)-1H-pyrazol-3-yl)phenyl)benzamide] | < 4.22 | indistinguishable from vehicle | 4.71 | 5.06 | – | – | – | – | –
2 | Oc1c(-c2cc(-c3ccco3)[nH]n2)ccc2ccccc12 [Compound 1] | < 4.22 | – | 4.87 | 5.78 | intermediate between the two | 4.94 | 12.6 µM | 100% | anaerobic toxicity (previously reported) [6]: toxic to S. aureus growing anaerobically
3 | Oc1ccccc1-c1cc(-c2ccccc2F)[nH]n1 [Compound 2e] | < 4.22 | – | < 4.22 | < 4.22 | eliminates this toxicity; also recorded: not bacteriostatic under the conditions tested here; also recorded: removes toxicity | 4.97 | 10.7 µM | 35.7 ± 10.1% | HssRS activation in single point screen [5]: comparable to 1a in activity; drop in efficacy ([5]; compared to 1): ~70%; anaerobic toxicity (previously reported) [6]: anaerobic toxicity; efficacy in mouse model of S. aureus infection [7]: efficacy in a mouse model of S. aureus infection
4 | NCC(=O)CCC(=O)O [ALA, reference compound] | – | – | – | – | – | – | – | – | accumulation of PBG [8]: results in accumulation of PBG
5 | Oc1ccccc1-c1cc(-c2cccs2)[nH]n1 [Compound 2a, 2-(5-(thiophen-2-yl)-1H-pyrazol-3-yl)phenol] | < 4.22 | – | < 4.22 | < 4.22 | – | – | – | 17.0 ± 2.9% | solubility [9]: ~80 µM (≈ 19.4 µg/mL)
6 | CCCCCc1cc(-c2ccccc2O)n[nH]1 [Compound 2o, 2-(5-pentyl-1H-pyrazol-3-yl)phenol] | 4.31 | indistinguishable from vehicle | 4.94 | 4.88 | comparably toxic to 1 | – | – | – | –
7 | Oc1ccccc1-c1cc(-c2ccccc2O)[nH]n1 [Compound 2d, 2,2′-(1H-pyrazole-3,5-diyl)diphenol] | 4.37 | – | 4.80 | 5.03 | anaerobic toxicity similar to 1; also recorded: exhibits both activities | 5.24 | 5.75 µM | – | pIC50 ([1]; read-out: IC50 Newman aerobic, 9 h of growth, aerobic): 4.37; preadaptation to heme toxicity ([2]; pretreatment 20 μM compound): excellent preadaptation to heme toxicity
8 | COc1ccccc1-c1cc(-c2ccccc2)[nH]n1 [Compound 3a, 3-(2-methoxyphenyl)-5-phenyl-1H-pyrazole] | < 4.22 | indistinguishable from vehicle | 4.68 | 4.60 | maintaining toxicity | – | – | – | HssRS activation (in words) ([5]; summary statements, concentration not fixed): removes HssRS activity
9 | Oc1ccccc1-c1cc(-c2ccncc2)[nH]n1 [Compound 2i] | < 4.22 | indistinguishable from vehicle | < 4.22 | < 4.22 | – | – | – | – | –
10 | CS(=O)(=O)Nc1ccccc1-c1cc(-c2ccco2)[nH]n1 [Compound 1h, N-(2-(5-(furan-2-yl)-1H-pyrazol-3-yl)phenyl)methanesulfonamide] | < 4.22 | – | < 4.22 | < 4.22 | nontoxic under fermentative conditions | – | – | – | HssRS activation in single point screen [5]: loss of HssRS activation compared to 1 and 1a
